The source made the active and inactive calls. The calls are words filed in the database; no cut-off is given here.
Key:
Acetylcholinesterase [1] = molecular target: T1, Acetylcholinesterase (Homo sapiens, UniProt P22303)
Acetylcholinesterase [2] = molecular target: T1, Acetylcholinesterase; settings: at 0.1 mg/mL
Acetylcholinesterase [3] = molecular target: T1, Acetylcholinesterase; assay: Inhibition of AChE (unknown origin) at 10 mg/ml after 20 min by TLC bioautographic assay

T1 sequence (P22303 whole entry): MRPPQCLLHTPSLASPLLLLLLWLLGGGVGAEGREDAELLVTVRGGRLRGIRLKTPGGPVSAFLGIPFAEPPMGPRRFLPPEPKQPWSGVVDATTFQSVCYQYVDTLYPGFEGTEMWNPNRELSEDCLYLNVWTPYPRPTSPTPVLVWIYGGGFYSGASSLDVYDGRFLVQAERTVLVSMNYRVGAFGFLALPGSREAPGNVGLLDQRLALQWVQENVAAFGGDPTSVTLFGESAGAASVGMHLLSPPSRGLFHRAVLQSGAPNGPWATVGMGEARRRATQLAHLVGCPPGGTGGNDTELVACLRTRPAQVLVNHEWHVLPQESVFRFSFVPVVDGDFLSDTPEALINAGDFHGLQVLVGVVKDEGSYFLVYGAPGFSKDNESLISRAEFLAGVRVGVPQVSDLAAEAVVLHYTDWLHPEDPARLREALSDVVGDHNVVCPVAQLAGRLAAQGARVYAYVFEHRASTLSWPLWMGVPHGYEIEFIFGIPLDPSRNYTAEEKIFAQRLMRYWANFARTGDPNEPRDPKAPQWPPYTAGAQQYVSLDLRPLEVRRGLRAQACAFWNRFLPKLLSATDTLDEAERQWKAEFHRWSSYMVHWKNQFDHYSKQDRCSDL

## COc1cccc2c3c(c(=O)n(C)c12)[C@@H](O)[C@H](O)C(C)(C)O3 (relative stereo) [REL-ZANTHODIOLINE]
Acetylcholinesterase [1]
  IC50: Not Active
Acetylcholinesterase [2]
  inhibition: 34.4%

## COc1cc2oc(=O)ccc2c(OC)c1OC [5,6,7-TRIMETHOXYCOUMARIN]
Acetylcholinesterase [1]; read-out: IC50 (converted)
  IC50: > 423 µM
Acetylcholinesterase [2]
  inhibition: 49.7%

## COc1c(C[C@H](C)C(C)(C)O)c(=O)n(C)c2ccccc12 [(-)-(S)-EDULININE]
Acetylcholinesterase [1]
  IC50: Not Active
Acetylcholinesterase [2]
  inhibition: 19.4%

## COc1c2ccccc2nc2occc12 [DICTAMNINE]
Acetylcholinesterase [1]
  IC50: Not Active
Acetylcholinesterase [2]
  inhibition: 12.6%

## COc1cc(=O)[nH]c2c(OC)cccc12 [EDULITINE]
Acetylcholinesterase [1]; read-out: IC50 (converted)
  IC50: > 487 µM
Acetylcholinesterase [2]
  inhibition: 45.1%

## COc1c2ccoc2nc2c(OC)cccc12 [GAMMA-FAGARINE]
Acetylcholinesterase [1]
  IC50: Not Active
Acetylcholinesterase [2]
  inhibition: 24.3%

## COc1c2[nH]c3occc3c(OC)c-2ccc1=O [HAPLOPINE]
Acetylcholinesterase [1]; read-out: IC50 (converted)
  IC50: > 408 µM
Acetylcholinesterase [2]
  inhibition: 51.9%

## COc1ccc(C(=O)[C@@H]2CO[C@H](c3ccc4c(c3)OCO4)[C@H]2CO)cc1OC [MAGNOLONE]
Acetylcholinesterase [1]
  IC50: Not Active
Acetylcholinesterase [2]
  inhibition: 9.9%

## COc1ccc2c(OC)c3ccoc3nc2c1OC [SKIMMIANINE]
Acetylcholinesterase [3]
  inhibition: Active
Acetylcholinesterase [1]; read-out: IC50 (converted)
  IC50: 33.2 µM
Acetylcholinesterase [2]
  inhibition: 91.3%

## COc1cc2oc(=O)ccc2c(OC)c1C[C@@H](O)C(C)(C)O [TODDALOLACTONE]
Acetylcholinesterase [1]
  IC50: Not Active
Acetylcholinesterase [2]
  inhibition: 33.9%

Reference: ChEMBL document CHEMBL3046928, “Skimmianine, a furoquinoline alkaloid from Zanthoxylum nitidum as a potential acetylcholinesterase inhibitor” (Med Chem Res, 2012)
